# What was measured:
# Test in all cases: relative viability (nuclei count vs DMSO), 5 days (fraction); higher = more cells survive
# [1] = compound: Cn1cc(-c2cnn3c(N)c(Br)c([C@@H]4CCCNC4)nc23)cn1 + CC(=O)c1c(C)c2cnc(Nc3ccc(N4CCNCC4)cn3)nc2n(C2CCCC2)c1=O [Palbociclib] (partner 0.5 µM)
# Procedure, shortened: (§1)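 Relative viability equals treated-well nuclei counts divided by vehicle-well nuclei counts. Counts came from 4× images of lung cancer cell lines grown in 1536-well plates for 5 days after pin-tool dosing on the day after seeding. Dosing used one drug alone or a fixed anchor-drug dose plus five library-drug doses (not always all listed) in √10 steps, and values are medians of duplicate plates.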
# [2] = compound: Cn1cc(-c2cnn3c(N)c(Br)c([C@@H]4CCCNC4)nc23)cn1 + CS(=O)(=O)N1CCN(Cc2cc3nc(-c4cccc5[nH]ncc45)nc(N4CCOCC4)c3s2)CC1 [Pictilisib] (partner 1 µM)
# Procedure, shortened: as §1
# [3] = compound: Cn1cc(-c2cnn3c(N)c(Br)c([C@@H]4CCCNC4)nc23)cn1 + N=C(N)NC(=N)NCCc1ccccc1 [Phenformin] (partner 250 µM)
# Procedure, shortened: as §1
# [4] = compound: Cn1cc(-c2cnn3c(N)c(Br)c([C@@H]4CCCNC4)nc23)cn1 + Nc1ncn([C@H]2C[C@H](O)[C@@H](CO)O2)c(=O)n1 [Decitabine] (partner 2 µM)
# Procedure, shortened: as §1
Cell Line,relative viability ([1]; first compound 0.05 µM),relative viability ([1]; first compound 0.1581 µM),relative viability ([1]; first compound 0.5 µM),relative viability ([1]; first compound 1.581 µM),relative viability ([1]; first compound 5 µM),relative viability ([2]; first compound 0.05 µM),relative viability ([2]; first compound 0.1581 µM),relative viability ([2]; first compound 0.5 µM),relative viability ([2]; first compound 1.581 µM),relative viability ([2]; first compound 5 µM),relative viability ([3]; first compound 0.05 µM),relative viability ([3]; first compound 0.1581 µM),relative viability ([3]; first compound 0.5 µM),relative viability ([3]; first compound 1.581 µM),relative viability ([3]; first compound 5 µM),relative viability ([4]; first compound 0.05 µM),relative viability ([4]; first compound 0.1581 µM),relative viability ([4]; first compound 0.5 µM),relative viability ([4]; first compound 1.581 µM),relative viability ([4]; first compound 5 µM)
LCLC-97TM1,0.248,0.236,0.242,0.242,0.178,0.16,0.149,0.26,0.152,0.143,0.499,0.47,0.464,0.458,0.411,0.22,0.297,0.222,0.278,0.295
HCC-15,0.71,0.785,0.721,0.604,0.591,0.798,0.768,0.757,0.634,0.764,0.494,0.524,0.429,0.406,0.349,0.652,0.689,0.633,0.552,0.561
NCI-H647,0.378,0.47,0.423,0.228,0.107,0.485,0.409,0.368,0.291,0.341,0.367,0.491,0.598,0.177,0.215,0.434,0.522,0.42,0.409,0.143
SW 1573,0.482,0.447,0.333,0.264,0.301,0.48,0.572,0.502,0.461,0.499,0.388,0.381,0.325,0.215,0.219,0.567,0.498,0.455,0.462,0.517
NCI-H1651,0.556,0.564,0.536,0.502,0.424,0.662,0.613,0.607,0.283,0.312,0.331,0.336,0.318,0.223,0.173,0.566,0.648,0.613,0.552,0.385
NCI-H1792,–,0.777,0.663,0.668,0.617,0.318,0.288,0.24,0.241,0.164,0.189,0.345,0.261,0.203,0.236,0.542,0.627,0.587,–,0.516
NCI-H2023,0.341,0.335,0.191,0.18,0.128,0.268,0.226,0.194,0.143,0.11,0.426,0.368,0.245,0.203,0.129,0.228,0.219,0.21,0.167,0.127
COR-L 105,0.411,0.367,0.385,0.41,0.386,0.459,0.4,0.376,0.376,0.385,0.504,0.508,0.452,0.379,0.301,0.66,0.703,0.563,0.597,0.608
NCI-H1734,0.387,0.347,0.317,0.323,0.295,0.506,0.46,0.475,0.382,0.358,0.368,0.457,0.373,0.349,0.319,0.518,0.491,0.49,0.437,0.448
NCI-H3122,0.169,0.164,0.227,0.182,0.163,0.635,0.647,0.604,0.526,0.606,0.374,0.62,0.383,0.366,0.383,0.427,0.454,0.329,0.413,0.511
HCC-78,0.445,0.391,0.532,0.439,0.488,0.245,0.246,0.11,0.155,0.154,–,0.687,0.796,0.7,0.605,0.733,0.729,0.783,0.675,0.492
NCI-H2085,0.46,0.521,0.51,0.471,0.385,0.508,0.441,0.57,0.403,0.469,0.692,0.746,0.737,0.626,0.516,0.532,0.594,0.551,0.545,0.624

# Source: the supplement of paper PMC10307832
